Experimental data taken from PubChem BioAssay AID1918943 (Molecular Pharmacology Branch, DTP, NCI, 2023).

Tested on: 855422-203-R-J1-PDC complex spheroid viability
Experiment: Anticancer human tumor 855422-203-R-J1-PDC patient-derived bladder carcinoma cell line growth inhibition
Conditions: for IC50: curve of first compound; for viability, T/C: stronger effect = lower value
From the text: Multicellular complex tumor spheroid response to LSD1 Inhibitor Iadademstat in combination with a variety of drugs and investigational agents in selected tumor cell lines
The current study was undertaken to assess response to LSD1 inhibitors in combination with standard-of-care drugs and investigational agents in solid tumor complex spheroid models as well as in the K-562 leukemia. Complex spheroids include a stromal component modeled by human endothelial cells (HUVEC) and fibroblasts modeled by human mesenchymal stem cells (MSCs). The concentration ranges selected for each drug and investigational agent were based upon clinically achievable concentrations if the clinical Cmax of the agent was known.
Compounds. The drugs and investigational agents used in this study are listed on Table 1. All of the agents used, including staurosporine (NSC755774) and gemcitabine (NSC613327), were obtained from the Developmental Therapeutics Program, NCI. FDA-approved anticancer drugs are available from the NCI at http://dtp.nci.nih.gov/branches/dscb/oncology_drugset_explanation.html. Drugs and investigational agents were >95% pure by proton nuclear magnetic resonance (NMR) and liquid chromatography/mass spectrometry (LC/MS). Stock solutions were prepared at 400x in DMSO, stored at -70 degrees C, and diluted in fresh medium prior to their use. The final concentration of DMSO in cell culture wells never exceeded 0.25% (v/v). The FDA-approved anticancer drug set is available from the Developmental Therapeutics Program at https://dtp.cancer.gov/organization/dscb/obtaining/available_plates.htm. All drugs and investigational agents were tested over a range starting from a high concentration at or near the clinical Cmax and decreasing in half-log increments. If the clinical Cmax for an agent had not been determined, the highest concentration tested was 10 microM.
Cell Lines. The patient-derived cancer cell (PDC) lines: 292921-168-R-J2-PDC, K24384-001-R-PDC, and 521955-158-R2-J5-PDC pancreatic carcinomas, 556581-035-R-J1 ovarian carcinoma, 324938-238-R-J1-PDC, 855422-203-R-J1-PDC and 883617-216-R-J1-PDC urothelial bladder carcinomas, 743489-274-T-PDC renal cell carcinoma, 138582-R-J1 Merkel cell tumor, K60290-347-R-J1 and K57222-313-R-J1-PDC glioblastomas, 653999-131-R-J2-PDC, LG0703-F948-PDC, and 349418-098-R-PDC non-small cell lung carcinomas, 885512-296-R-J2-PDC, 171881-019-R-J1-PDC breast carcinomas and 186277-243-T-J2-PDC and 233499-124-R-J2-PDC colon carcinomas were obtained from the NCI Patient-Derived Models Repository (PDMR, https://pdmr.cancer.gov). The established cell lines NCI/ADR-RES (RRID:CVCL_14520 and OVCAR-5 (RRID:CVCL_1628) ovarian carcinomas, 786-O (RRID:CVCL_1051) and A498 (RRID:CVCL_A498) renal cell carcinoma, NCI-H211 (ATCC, cat. CRL-5824; RRID:CVCL_1529), NCI-H196 (ATCC, cat. CRL-5823, RRID:CVCL_1509), SW 1271 (ATCC, cat. CRL-2177, RRID:CVCL_1716) and NCI-H1876 (ATCC, cat. CRL-5902, RRID:CVCL_1503) small cell lung carcinomas, MDA-MB-231 (RRID:CVCL_0062) and MDA-MB-468 (RRID:CVCL_0419)breast carcinomas (10-12). Pooled donor human umbilical vein endothelial cells (HUVEC, Lonza, cat. CC-2519) and human mesenchymal stem cells (hMSC, Lonza, cat. PT-2501) were purchased from Lonza (Walkersville, MD).
Cell Culture. All cells were maintained in an incubator at 37 degrees C and 5% CO2 with 95% humidity. The PDC lines were cultured according to standard operating procedures established by the NCI PDMR (https://pdmr.cancer.gov). Briefly all PDCs were thawed and cultured in Matrigel-coated flasks prepared with a working solution of 1X Ham's F-12 nutrient mix, without supplementation (Invitrogen, Waltham, MA, cat. 11765054), 100 U/mL penicillin-streptomycin (Invitrogen, cat. 15140122), and 2.5% Matrigel (Corning Inc., Corning, NY, cat. 354248) for the first three passages. […]
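Note: drug exposure lasted 7 days starting on day 3 after seeding.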
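Throughout, for viability, T/C: luminescence viability as percent of DMSO vehicle wells = 100%.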

CC1(C)CCC(CN2CCN(c3ccc(C(=O)NS(=O)(=O)c4ccc(NCC5CCOCC5)c([N+](=O)[O-])c4)c(Oc4cnc5[nH]ccc5c4)c3)CC2)=C(c2ccc(Cl)cc2)C1 + NC1CC1c1ccc(-c2cccc(O)c2)cc1
IC50 (second compound 0.1 µM): 6.25 µM | IC50 (second compound 0.316 µM): 6.32 µM | IC50 (second compound 1 µM): 5.81 µM | IC50 (second compound 3.16 µM): 5.77 µM | IC50 (second compound 10 µM): 5.48 µM | viability, T/C (second compound 0.1 µM, first compound 0.0316 µM): 90.2% | viability, T/C (second compound 0.1 µM, first compound 0.1 µM): 104% | viability, T/C (second compound 0.1 µM, first compound 0.316 µM): 93.5% | viability, T/C (second compound 0.1 µM, first compound 1 µM): 94.5% | viability, T/C (second compound 0.1 µM, first compound 3.16 µM): 95.5% | viability, T/C (second compound 0.1 µM, first compound 10 µM): 18.6% | viability, T/C (second compound 0.316 µM, first compound 0.0316 µM): 87% | viability, T/C (second compound 0.316 µM, first compound 0.1 µM): 101% | viability, T/C (second compound 0.316 µM, first compound 0.316 µM): 101% | viability, T/C (second compound 0.316 µM, first compound 1 µM): 103% | viability, T/C (second compound 0.316 µM, first compound 3.16 µM): 97.2% | viability, T/C (second compound 0.316 µM, first compound 10 µM): 18.6% | viability, T/C (second compound 1 µM, first compound 0.0316 µM): 85.9% | viability, T/C (second compound 1 µM, first compound 0.1 µM): 92.1% | viability, T/C (second compound 1 µM, first compound 0.316 µM): 90.3% | viability, T/C (second compound 1 µM, first compound 1 µM): 91.5% | viability, T/C (second compound 1 µM, first compound 3.16 µM): 88.4% | viability, T/C (second compound 1 µM, first compound 10 µM): 15.8% | viability, T/C (second compound 3.16 µM, first compound 0.0316 µM): 85.4% | viability, T/C (second compound 3.16 µM, first compound 0.1 µM): 87.3% | viability, T/C (second compound 3.16 µM, first compound 0.316 µM): 89.4% | viability, T/C (second compound 3.16 µM, first compound 1 µM): 91.1% | viability, T/C (second compound 3.16 µM, first compound 3.16 µM): 94.6% | viability, T/C (second compound 3.16 µM, first compound 10 µM): 13.8% | viability, T/C (second compound 10 µM, first compound 0.0316 µM): 79.7% | viability, T/C (second compound 10 µM, first compound 0.1 µM): 82.9% | viability, T/C (second compound 10 µM, first compound 0.316 µM): 82.6% | viability, T/C (second compound 10 µM, first compound 1 µM): 82.5% | viability, T/C (second compound 10 µM, first compound 3.16 µM): 84.8% | viability, T/C (second compound 10 µM, first compound 10 µM): 14.5%

CCN(c1cc(-c2ccc(CN3CCOCC3)cc2)cc(C(=O)NCc2c(C)cc(C)[nH]c2=O)c1C)C1CCOCC1 + NC1CC1c1ccc(-c2cccc(O)c2)cc1
IC50 (second compound 0.1 µM): > 3 µM | IC50 (second compound 0.316 µM): > 3 µM | IC50 (second compound 1 µM): > 3 µM | IC50 (second compound 3.16 µM): > 3 µM | IC50 (second compound 10 µM): > 3 µM | viability, T/C (second compound 0.1 µM, first compound 0.00949 µM): 90.2% | viability, T/C (second compound 0.1 µM, first compound 0.03 µM): 96.8% | viability, T/C (second compound 0.1 µM, first compound 0.0949 µM): 99% | viability, T/C (second compound 0.1 µM, first compound 0.3 µM): 98% | viability, T/C (second compound 0.1 µM, first compound 0.949 µM): 89% | viability, T/C (second compound 0.1 µM, first compound 3 µM): 84.9% | viability, T/C (second compound 0.316 µM, first compound 0.00949 µM): 89% | viability, T/C (second compound 0.316 µM, first compound 0.03 µM): 96.8% | viability, T/C (second compound 0.316 µM, first compound 0.0949 µM): 96.5% | viability, T/C (second compound 0.316 µM, first compound 0.3 µM): 105% | viability, T/C (second compound 0.316 µM, first compound 0.949 µM): 93% | viability, T/C (second compound 0.316 µM, first compound 3 µM): 99.2% | viability, T/C (second compound 1 µM, first compound 0.00949 µM): 91.4% | viability, T/C (second compound 1 µM, first compound 0.03 µM): 89.3% | viability, T/C (second compound 1 µM, first compound 0.0949 µM): 97.7% | viability, T/C (second compound 1 µM, first compound 0.3 µM): 88.7% | viability, T/C (second compound 1 µM, first compound 0.949 µM): 87.7% | viability, T/C (second compound 1 µM, first compound 3 µM): 86.4% | viability, T/C (second compound 3.16 µM, first compound 0.00949 µM): 102% | viability, T/C (second compound 3.16 µM, first compound 0.03 µM): 94% | viability, T/C (second compound 3.16 µM, first compound 0.0949 µM): 91.6% | viability, T/C (second compound 3.16 µM, first compound 0.3 µM): 103% | viability, T/C (second compound 3.16 µM, first compound 0.949 µM): 95.1% | viability, T/C (second compound 3.16 µM, first compound 3 µM): 97.7% | viability, T/C (second compound 10 µM, first compound 0.00949 µM): 99.9% | viability, T/C (second compound 10 µM, first compound 0.03 µM): 101% | viability, T/C (second compound 10 µM, first compound 0.0949 µM): 91.4% | viability, T/C (second compound 10 µM, first compound 0.3 µM): 94.7% | viability, T/C (second compound 10 µM, first compound 0.949 µM): 97.8% | viability, T/C (second compound 10 µM, first compound 3 µM): 92.6%
